From ChEMBL document CHEMBL6177948, “Discovery of potential Leonurine-based therapeutic lead MJ210 attenuates Parkinson's disease pathogenesis via NF-κB and MAPK pathways: Mechanistic insights from in vitro and in vivo rotenone models” (Eur J Med Chem, 2025)
The source made the active and inactive calls. No cut-off for these calls is given here.

Key:
SH-SY5Y [1] = assay: Anti-apoptotic activity in rotenone-induced human SH-SY5Y cells assessed as increase in Bcl-xL expression by Western blotting analysis; assay type: functional, cell-based
SH-SY5Y [2] = assay: Anti-apoptotic activity in rotenone-induced human SH-SY5Y cells assessed as reduction in Caspase-3 expression by Western blotting analysis; assay type: functional, cell-based
[3] = target: Transcription factor p65 (Homo sapiens) (UniProt Q04206); assay: Inhibition of rotenone-induced NFkappaB p65 translocation from cytosol to nucleus in human SH-SY5Y cells pretreated with compound followed by rotenone addition by DAPI staining based immunocytochemistry analysis; assay type: cell-based
SH-SY5Y [4] = assay: Anti-inflammatory activity against rotenone-induced human SH-SY5Y cells assessed as reduction in iNOS mRNA expression level by RT-qPCR analysis; assay type: functional, cell-based
SH-SY5Y [5] = assay: Inhibition of MAPK signaling pathway in rotenone-induced human SH-SY5Y cells assessed as reduction in ERK1/2 phosphorylation level by ELISA; assay type: cell-based
Rattus norvegicus [6] = assay: Anti-parkinson activity in rotenone-induced male Wistar rat model assessed as increase in TH expression in substantia nigra at 1 mg/kg, ip pretreated with compound every alternative days followed by rotenone addition and measured after 42 days by Western blotting analysis; assay type: functional, organism-based; conditions: time 42.0 day
Rattus norvegicus [7] = assay: Anti-parkinson activity in rotenone-induced male Wistar rat model assessed as prevention of rotenone-induced dopaminergic neuronal death at 5 mg/kg, ip by immunoblotting analysis; assay type: functional, organism-based
Rattus norvegicus [8] = assay: Anti-parkinson activity in rotenone-induced male Wistar rat model assessed as increase TH expression in striatum at 5 mg/kg, ip pretreated with compound every alternative days followed by rotenone addition and measured after 42 days by Western blotting analysis; assay type: functional, organism-based; conditions: time 42.0 day
Rattus norvegicus [9] = assay: Anti-parkinson activity in rotenone-induced male Wistar rat model assessed as improvement in t-total metrics at 5 mg/kg, ip pretreated with compound every alternative days followed by rotenone addition and measured after 42 days by pole test; assay type: functional, organism-based; conditions: time 42.0 day
Rattus norvegicus [10] = assay: (§1) Anti-parkinson activity in rotenone-induced male Wistar rat model assessed as reduction in climbing time at 5 mg/kg, ip pretreated with compound every alternative days followed by rotenone addition and measured after 42 days by pole test; assay type: functional, organism-based; conditions: time 42.0 day
Rattus norvegicus [11] = assay: Anti-parkinson activity in rotenone-induced male Wistar rat model assessed as improvement in bradykinesia at 5 mg/kg, ip pretreated with compound every alternative days followed by rotenone addition and measured after 42 days by pole test; assay type: functional, organism-based; conditions: time 42.0 day
Rattus norvegicus [12] = assay: Anti-parkinson activity in rotenone-induced male Wistar rat model assessed as increase in cage lid hold time at 5 mg/kg, ip pretreated with compound every alternative days followed by rotenone addition and measured after 42 days by inverted grid test; assay type: functional, organism-based; conditions: time 42.0 day
Rattus norvegicus [13] = assay: as §1, with “rotenone-induced behavioral impairment by measuring” for “climbing”, “time in central zone” for “time”, “open field” for “pole”; assay type: functional, organism-based; conditions: time 42.0 day
Rattus norvegicus [14] = assay: Anti-parkinson activity in rotenone-induced neurodegeneration in male Wistar rat model assessed as minimal neuronal loss in substantia nigra at 5 mg/kg, ip pretreated with compound every alternative days followed by rotenone addition and measured after 42 days by H and E staining based analysis; assay type: functional, organism-based; conditions: time 42.0 day
Rattus norvegicus [15] = assay: Anti-parkinson activity in rotenone-induced neurodegeneration in male Wistar rat model assessed as reduced edema in substantia nigra at 5 mg/kg, ip pretreated with compound every alternative days followed by rotenone addition and measured after 42 days by H and E staining based analysis; assay type: functional, organism-based; conditions: time 42.0 day
Rattus norvegicus [16] = assay: Anti-parkinson activity in rotenone-induced neurodegeneration in male Wistar rat model assessed as decrease count of pyknotic cells in striatum at 5 mg/kg, ip pretreated with compound every alternative days followed by rotenone addition and measured after 42 days by H and E staining based analysis; assay type: functional, organism-based; conditions: time 42.0 day
Rattus norvegicus [17] = assay: Anti-parkinson activity in rotenone-induced neurodegeneration in male Wistar rat model assessed as reduction in pyknotic neurons in cortex at 5 mg/kg, ip pretreated with compound every alternative days followed by rotenone addition and measured after 42 days by Nissl staining based analysis; assay type: functional, organism-based; conditions: time 42.0 day
Rattus norvegicus [18] = assay: Anti-parkinson activity in rotenone-induced neurodegeneration in male Wistar rat model assessed as reduction in pyknotic neurons in striatum at 5 mg/kg, ip pretreated with compound every alternative days followed by rotenone addition and measured after 42 days by Nissl staining based analysis; assay type: functional, organism-based; conditions: time 42.0 day
Rattus norvegicus [19] = assay: Anti-parkinson activity in rotenone-induced neurodegeneration in male Wistar rat model assessed as reduction in necrosis in cortex at 5 mg/kg, ip pretreated with compound every alternative days followed by rotenone addition and measured after 42 days by Nissl staining based analysis; assay type: functional, organism-based; conditions: time 42.0 day
Rattus norvegicus [20] = assay: Anti-parkinson activity in rotenone-induced neurodegeneration in male Wistar rat model assessed as reduction in necrosis in striatum at 5 mg/kg, ip pretreated with compound every alternative days followed by rotenone addition and measured after 42 days by Nissl staining based analysis; assay type: functional, organism-based; conditions: time 42.0 day
Rattus norvegicus [21] = assay: Anti-parkinson activity in rotenone-induced male Wistar rat assessed as increase in TH positive fiber density in striatum at 5 mg/kg, ip pretreated with compound every alternative days followed by rotenone addition and measured after 42 days by immunofluorescence staining based analysis; assay type: functional, organism-based; conditions: time 42.0 day
Rattus norvegicus [22] = assay: (§2) In vivo inhibition of MAPK signaling pathway in rotenone-induced parkinson disease male Wistar rat model assessed as reduction in ERK1/2 phosphorylation level in substantia nigra at 5 mg/kg, ip pretreated with compound every alternative days followed by rotenone addition and measured after 42 days by Western blotting analysis; assay type: functional, organism-based; conditions: time 42.0 day
Rattus norvegicus [23] = assay: as §2, with “striatum” for “substantia nigra”; assay type: functional, organism-based; conditions: time 42.0 day
Rattus norvegicus [24] = assay: Anti-inflammatory activity in rotenone-induced male Wistar rat model assessed as reduction in IL-1beta expression level in substantia nigra at 5 mg/kg, ip pretreated with compound every alternative days followed by rotenone addition and measured after 42 days by ELISA; assay type: functional, organism-based; conditions: time 42.0 day
Rattus norvegicus [25] = assay: Anti-inflammatory activity in rotenone-induced male Wistar rat model assessed as reduction in COX2 expression level in striatum at 5 mg/kg, ip pretreated with compound every alternative days followed by rotenone addition and measured after 42 days by ELISA; assay type: functional, organism-based; conditions: time 42.0 day
Rattus norvegicus [26] = assay: Anti-inflammatory activity in rotenone-induced male Wistar rat model assessed as reduction in COX2 expression level in substantia nigra at 5 mg/kg, ip pretreated with compound every alternative days followed by rotenone addition and measured after 42 days by ELISA; assay type: functional, organism-based; conditions: time 42.0 day
Rattus norvegicus [27] = assay: Anti-inflammatory activity in rotenone-induced male Wistar rat model assessed as reduction in PGE2 expression level in striatum at 5 mg/kg, ip pretreated with compound every alternative days followed by rotenone addition and measured after 42 days by ELISA; assay type: functional, organism-based; conditions: time 42.0 day
Rattus norvegicus [28] = assay: Anti-inflammatory activity in rotenone-induced male Wistar rat model assessed as reduction in phosphorylated NF-kappaB P65 protein expression level in striatum at 5 mg/kg, ip pretreated with compound every alternative days followed by rotenone addition and measured after 42 days by ELISA; assay type: functional, organism-based; conditions: time 42.0 day
Rattus norvegicus [29] = assay: Anti-inflammatory activity in rotenone-induced male Wistar rat model assessed as reduction in phosphorylated NF-kappaB P65 protein expression level in substantia nigra at 5 mg/kg, ip pretreated with compound every alternative days followed by rotenone addition and measured after 42 days by ELISA; assay type: functional, organism-based; conditions: time 42.0 day
[30] = Toxicity in male Wistar rat assessed as change in cellular structure of liver at 1 to 10 mg/kg by H and E staining based analysis; assay type: organism-based; conditions: in vivo, dose 1-10 mg/kg
[31] = Drug uptake in male Wistar rat brain at 5 mg/kg, ip measured after 6 hrs by HPLC analysis; assay type: ADME, organism-based; conditions: in vivo
[32] = Half life in male Wistar rat at 50 mg/kg, ip measured after 24 hrs; assay type: ADME, organism-based; conditions: in vivo

Sequence of Transcription factor p65 (Homo sapiens) (Q04206 whole entry): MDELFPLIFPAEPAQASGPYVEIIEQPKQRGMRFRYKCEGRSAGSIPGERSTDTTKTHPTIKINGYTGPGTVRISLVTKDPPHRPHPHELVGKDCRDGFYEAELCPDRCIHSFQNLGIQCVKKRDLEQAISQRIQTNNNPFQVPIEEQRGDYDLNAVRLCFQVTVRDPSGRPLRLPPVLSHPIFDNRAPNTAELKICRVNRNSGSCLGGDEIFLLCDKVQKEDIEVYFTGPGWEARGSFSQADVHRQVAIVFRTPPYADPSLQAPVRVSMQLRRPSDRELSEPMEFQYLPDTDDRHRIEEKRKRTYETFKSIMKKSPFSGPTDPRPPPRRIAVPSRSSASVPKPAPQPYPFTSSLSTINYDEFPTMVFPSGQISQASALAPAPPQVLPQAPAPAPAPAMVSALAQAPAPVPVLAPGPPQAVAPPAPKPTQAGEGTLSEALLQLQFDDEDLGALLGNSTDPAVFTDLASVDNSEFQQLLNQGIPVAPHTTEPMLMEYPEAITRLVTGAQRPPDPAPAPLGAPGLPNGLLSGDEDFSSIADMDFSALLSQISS

With `COc1cc(CCC(=O)N2CCCCC2)cc(OC)c1OC(=O)c1ccccn1` the Activity (SH-SY5Y [1]) was “Active”, the Activity (SH-SY5Y [2]) was “Active” and the inhibition [3] was “Active”. For the same compound, the Activity (SH-SY5Y [4]) was “Active”, the inhibition (SH-SY5Y [5]) was “Active” and the Activity (Rattus norvegicus [6]) was “Active”. For the same compound, the Activity (Rattus norvegicus [7]) was “Active”, the Activity (Rattus norvegicus [8]) was “Active” and the Activity (Rattus norvegicus [9]) was “Active”. The Activity (Rattus norvegicus [10]) was “Active”, the Activity (Rattus norvegicus [11]) was “Active” and the Activity (Rattus norvegicus [12]) was “Active”. For the same compound, the Activity (Rattus norvegicus [13]) was “Active”, the Activity (Rattus norvegicus [14]) was “Active” and the Activity (Rattus norvegicus [15]) was “Active”. The Activity (Rattus norvegicus [16]) was “Active”, the Activity (Rattus norvegicus [17]) was “Active” and the Activity (Rattus norvegicus [18]) was “Active”. The Activity (Rattus norvegicus [19]) was “Active”, the Activity (Rattus norvegicus [20]) was “Active” and the Activity (Rattus norvegicus [21]) was “Active”. For the same compound, the inhibition (Rattus norvegicus [22]) was “Active”, the inhibition (Rattus norvegicus [23]) was “Active” and the Activity (Rattus norvegicus [24]) was “Active”. The Activity (Rattus norvegicus [25]) was “Active”, the Activity (Rattus norvegicus [26]) was “Active” and the Activity (Rattus norvegicus [27]) was “Active”. The Activity (Rattus norvegicus [28]) was “Active”, the Activity (Rattus norvegicus [29]) was “Active” and the Activity [30] was “Non-toxic”. The Drug uptake [31] was “Active” and the half-life [32] was 8.5 h.
